Common to all, as to experiment: NCI-60 cell line screen, 48 h
In experiment [1] the test system is ACHN renal.
Experiment [2] deals with EKVX NSCLC.
In experiment [3] the test system is HCT-116 colon.
Experiment [4] concerns IGROV1 ovarian.
The test system of experiment [5] is MCF7 breast.
Experiment [6] has as its system MDA-MB-231 breast.
The test system of experiment [7] is NCI-H23 lung.
Experiment [8] concerns PC-3 prostate.
The test system of experiment [9] is SF-295 CNS.
Experiment [10] has as its system SK-MEL-2 melanoma.
Experiment [11] concerns SK-MEL-5 melanoma.
Experiment [12] relates to TK-10 renal.
In experiment [13] the test system is UACC-257 melanoma.
Experiment [14] relates to UACC-62 melanoma.
Experiment [15] has as its system HCT-15 colon.
For experiment [16], the system named is OVCAR-4 ovarian.
Experiment [17] has as its system RPMI-8226 leukemia.
For experiment [18], the system named is MALME-3M melanoma.

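Values below derive from 48-hour exposures of cells grown in 96-well plates, with endpoints linearly interpolated between the two concentrations bracketing the appropriate inhibition level. TGI: total growth inhibition.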

Turning to `CC(=O)C1C(=O)C(=O)N(c2cccc(C)c2C)C1=O` (configuration not stated), the TGI in [1], in experiment [2], in [3], in [4], in [5] and in [6] was > 100 µM throughout. Besides, the TGI in experiment [7], in [8], in [9], in experiment [10], in [11] and in experiment [12] was > 100 µM throughout. The TGI in experiment [13] and in [14] was > 100 µM each time.

`C#CCOC(=O)c1ccccc1O`: the TGI in [1], in experiment [2], in experiment [3], in [15], in experiment [4] and in experiment [5] was > 100 µM throughout. The TGI in [6], in experiment [7], in experiment [16], in [8], in experiment [17] and in [9] was > 100 µM in each case. The TGI in [10], in [11], in experiment [12], in experiment [13] and in experiment [14] was > 100 µM throughout.

For the molecule `Cc1cc(C)nc(NS(=O)(=O)c2ccc(Nc3nncc(=O)n3N)cc2)n1`, the TGI in experiment [1] is > 100 µM; in experiment [2], 62.7 µM; in experiment [3], 87.8 µM; in experiment [15] it was 28.8 µM; in experiment [4], 33.1 µM; in [18] it was 41.6 µM. Moreover, the TGI in experiment [5] is 30.3 µM; in experiment [7], 28.6 µM; in experiment [16], 32.9 µM; in [8], 54.9 µM; in [17], 49.8 µM; in experiment [9] it was > 100 µM. For the same molecule, the TGI is > 100 µM in experiment [10], 33.1 µM in [11], 43.9 µM in [13] and 51.2 µM in experiment [14].

On to `C/C=C(C)/C=C/CC(C)CCC=C(C)C` (configuration not stated), for which the TGI in experiment [1], in [2], in [3], in [15], in experiment [4] and in [5] was > 100 µM throughout. Besides, the TGI in experiment [6], in [16], in [9], in experiment [10], in experiment [11] and in [12] was > 100 µM in each case. Also, the TGI in [13] and in experiment [14] was > 100 µM throughout.

With `COC(=O)[C@@H]1CN(C(=O)c2ccccc2)C(=O)N1`, the TGI in [1], in experiment [2], in [3], in [4], in experiment [18] and in experiment [6] was > 100 µM each time. Further, the TGI in experiment [7], in experiment [16], in experiment [8], in [17], in [9] and in [11] was > 100 µM in each case. The TGI in experiment [12], in [13] and in [14] was > 100 µM each time.

For `O=C1CCCCC/C1=C\c1ccc(F)cc1`, the TGI in experiment [1], in experiment [2], in [3], in experiment [15], in experiment [4] and in [18] was > 100 µM each time. For the same molecule, the TGI in experiment [6], in experiment [7], in experiment [16], in [8], in experiment [17] and in [9] was > 100 µM each time. Besides, the TGI in [10], in experiment [11], in [12], in experiment [13] and in [14] was > 100 µM throughout.

`N#Cc1c2ccc([N+](=O)[O-])cc2c(=O)n2c1sc1ccc(C(F)(F)F)cc12`: the TGI in experiment [1], in [2], in [3], in experiment [15], in experiment [4] and in experiment [18] was > 100 µM in each case. The TGI in [6], in [7], in experiment [16], in [17], in [9] and in [11] was > 100 µM each time. Besides, the TGI in experiment [12] and in experiment [13] was > 100 µM throughout.

Consider `COc1ccc2c(c1)c(=O)c1ccccc1n2/C=C/C(=O)O`, for which the TGI in experiment [1], in [2], in [3], in experiment [15], in experiment [4] and in experiment [18] was > 100 µM in each case. The TGI in [7], in [16], in experiment [17], in experiment [9], in experiment [10] and in experiment [11] was > 100 µM each time. Moreover, the TGI in experiment [12], in experiment [13] and in [14] was > 100 µM throughout.

Take `CN(C)c1ccc(-c2cc(=O)c3cc4c(cc3[nH]2)OCO4)cc1`: the TGI in [1], in experiment [2], in experiment [3], in experiment [15], in experiment [4] and in experiment [18] was > 100 µM in each case. Besides, the TGI in experiment [7], in [16], in experiment [17], in experiment [9], in experiment [10] and in experiment [11] was > 100 µM in each case. The TGI in experiment [12], in [13] and in experiment [14] was > 100 µM throughout.

Consider `C/C(=N\NS(=O)(=O)c1ccc(C)cc1)C(CN1CCOCC1)C(c1ccccc1)c1c(O)c2ccccc2oc1=O` (configuration not stated), for which the TGI in experiment [1], in [2], in [3], in experiment [15], in [4] and in [18] was > 100 µM throughout. Besides, the TGI in experiment [7], in experiment [16], in experiment [17], in experiment [9], in experiment [10] and in [11] was > 100 µM throughout. Further, the TGI in [12], in experiment [13] and in experiment [14] was > 100 µM throughout.

For the molecule `CC(=O)O[C@H]1C(=O)[C@@]2(C)[C@H]([C@H](OC(=O)c3ccccc3)[C@]3(O)C[C@H](OC(=O)[C@H](OC(=O)OCCC(O)CO)[C@@H](NC(=O)c4ccccc4)c4ccccc4)C(C)=C1C3(C)C)[C@]1(OC(C)=O)CO[C@@H]1C[C@@H]2O` (some centres not stated), the TGI in [1] was > 62.2 µM; in experiment [2] it was > 100 µM; in experiment [3], 11.3 µM; in experiment [15] it was > 35.4 µM; in experiment [4], 34.7 µM; in [5] it was 14.1 µM. For the same molecule, the TGI is 21.6 µM in experiment [6]; > 37 µM in experiment [7]; > 100 µM in experiment [16]; > 100 µM in [8]; 0.187 µM in [9]; > 100 µM in experiment [10]. Also, the TGI in experiment [11] was 0.613 µM; in experiment [12], > 44.6 µM; in experiment [13], 23.3 µM; in experiment [14], 20.1 µM.

For `Cc1ccc(S(=O)(=O)N2CCN(S(=O)(=O)c3ccc(C)cc3)Cc3ccccc3C2)cc1`, the TGI in [1], in experiment [2], in experiment [3], in experiment [15], in experiment [4] and in experiment [18] was > 100 µM throughout. Also, the TGI is > 100 µM in experiment [5]; > 100 µM in experiment [6]; > 100 µM in [7]; 90.8 µM in experiment [16]; > 100 µM in experiment [17]; > 100 µM in experiment [9]. The TGI in experiment [10] is > 100 µM; in experiment [11] it was > 100 µM; in experiment [12], > 100 µM; in [13], > 100 µM; in [14], 36.7 µM.

For `COC(=O)/C=C1/CCC2[C@@H](C(=O)CC3[C@]2(C)CCC[C@@]3(C)C(=O)OC)C1C` (some centres not stated), the TGI turned out to be 24.2 µM in [1]; 42.3 µM in experiment [2]; 19.1 µM in experiment [3]; 35.9 µM in experiment [15]; 43.6 µM in experiment [4]; 34.8 µM in [18]. Further, the TGI in [7] was determined as 31.6 µM; in experiment [16], 21.6 µM; in [17], 14.4 µM; in [9], 33.1 µM; in experiment [10], 35.7 µM; in [11], 20.8 µM. In addition, the values for the TGI in [12], in [13] and in [14] were 36.1 µM, 24.7 µM and 30.1 µM, respectively.

For the molecule `CCN1CCC(O)(c2ccc(C)cc2)C(C(=O)c2ccc(C)cc2)C1` (configuration not stated), the TGI was 32.1 µM in experiment [1]; 36.1 µM in experiment [2]; 30.3 µM in experiment [3]; 36.5 µM in [15]; > 58.9 µM in experiment [4]; 35.1 µM in [18]. For the same molecule, the TGI in experiment [7] is > 55.1 µM; in experiment [16] it was 50.1 µM; in [17], 41.5 µM; in experiment [9] it was > 100 µM; in experiment [10] it was > 100 µM; in [11], > 57.2 µM. Also, the TGI in experiment [12] is > 61 µM; in [13], 36.6 µM; in [14], > 60 µM.

Turning to `COc1cc(C2=NN(C)C(c3ccc([N+](=O)[O-])o3)C2)cc(OC)c1OC` (configuration not stated), the TGI in experiment [1] is > 100 µM; in [2] it was > 100 µM; in experiment [3] it was > 100 µM; in experiment [15] it was 32.7 µM; in [4], > 100 µM; in experiment [18], > 100 µM. For the same molecule, the TGI in experiment [7] was > 100 µM; in experiment [16], > 100 µM; in [17], 31.8 µM; in experiment [9] it was > 100 µM; in experiment [10], > 100 µM; in [11] it was > 100 µM. In addition, the TGI in [12], in experiment [13] and in experiment [14] was > 100 µM in each case.

Take `CCCN(CCCCC(NC(C)=O)C(=O)NCc1ccccc1)C(=O)N(C)N=O` (configuration not stated): the TGI in experiment [1], in [2], in experiment [3], in experiment [15], in [4] and in experiment [18] was > 100 µM throughout. Besides, the TGI in experiment [7], in experiment [16], in experiment [17], in experiment [9], in experiment [10] and in experiment [11] was > 100 µM throughout. Besides, the TGI in experiment [12], in experiment [13] and in experiment [14] was > 100 µM in each case.

For the molecule `COc1cc(OC)cc(Oc2nc3ccccc3nc2C(=O)O)c1`, the TGI in experiment [1], in experiment [2], in experiment [3], in experiment [15], in experiment [4] and in experiment [18] was > 100 µM throughout. The TGI in experiment [6], in experiment [7], in experiment [16], in experiment [8], in experiment [17] and in experiment [9] was > 100 µM each time. In addition, the TGI in experiment [10], in [11], in experiment [12], in [13] and in experiment [14] was > 100 µM each time.
